Data from publication PMC4076210, “Discovery of Novel AKT Inhibitors with Enhanced Anti-Tumor Effects in Combination with the MEK Inhibitor” (PLoS ONE, 2014).
Like-named read-outs stand apart in the source and are kept apart here.

Assays:
[1] = system: AMPK(r); assay: Kinase panel; format: biochemical, rat
[2] = target: T1, CDK9/cyclin T1(h) (Homo sapiens, UniProt P50750); assay: Kinase panel; format: biochemical
T1 construct: purchased Millipore KinaseProfiler

[3] = target: T2, DMPK(h) (Homo sapiens, UniProt Q09013); assay: Kinase panel; format: biochemical
T2 construct: purchased Millipore KinaseProfiler
T2 sequence (Q09013 1-629): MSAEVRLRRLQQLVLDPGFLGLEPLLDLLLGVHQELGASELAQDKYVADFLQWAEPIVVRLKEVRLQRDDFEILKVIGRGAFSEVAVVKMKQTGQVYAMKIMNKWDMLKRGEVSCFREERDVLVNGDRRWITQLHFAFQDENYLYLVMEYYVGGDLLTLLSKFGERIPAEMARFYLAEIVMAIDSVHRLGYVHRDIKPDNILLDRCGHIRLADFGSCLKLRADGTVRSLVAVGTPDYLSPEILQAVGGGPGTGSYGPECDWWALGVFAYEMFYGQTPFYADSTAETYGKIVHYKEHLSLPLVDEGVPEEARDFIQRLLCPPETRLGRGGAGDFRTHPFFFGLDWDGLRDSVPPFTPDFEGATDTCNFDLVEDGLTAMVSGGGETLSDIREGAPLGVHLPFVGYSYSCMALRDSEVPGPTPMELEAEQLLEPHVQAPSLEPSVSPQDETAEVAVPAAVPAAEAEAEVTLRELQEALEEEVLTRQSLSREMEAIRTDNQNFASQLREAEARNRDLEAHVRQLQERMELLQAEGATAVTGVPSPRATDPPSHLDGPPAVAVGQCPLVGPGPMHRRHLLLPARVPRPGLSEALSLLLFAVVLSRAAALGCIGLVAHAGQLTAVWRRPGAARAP

[4] = target: T3, Lck(h) (Homo sapiens, UniProt P06239); assay: Kinase panel; format: biochemical
T3 construct: purchased Millipore KinaseProfiler

[5] = target: T4, Met(h) (Homo sapiens, UniProt P08581); assay: Kinase panel; format: biochemical
T4 construct: purchased Millipore KinaseProfiler

[6] = target: T5, MKK6(h) (Homo sapiens, UniProt P52564); assay: Kinase panel; format: biochemical
T5 construct: purchased Millipore KinaseProfiler
T5 sequence (P52564 1-334): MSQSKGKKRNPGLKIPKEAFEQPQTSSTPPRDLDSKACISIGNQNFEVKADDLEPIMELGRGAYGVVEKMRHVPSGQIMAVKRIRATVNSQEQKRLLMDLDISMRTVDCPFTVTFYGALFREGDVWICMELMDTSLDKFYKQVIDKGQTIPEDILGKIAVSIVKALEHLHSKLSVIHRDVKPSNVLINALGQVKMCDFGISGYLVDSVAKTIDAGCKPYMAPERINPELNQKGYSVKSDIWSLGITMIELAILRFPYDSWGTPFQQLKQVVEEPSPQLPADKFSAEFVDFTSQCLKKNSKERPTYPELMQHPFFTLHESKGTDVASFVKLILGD

[7] = target: T6, NEK11(h) (Homo sapiens, UniProt Q8NG66); assay: Kinase panel; format: biochemical
T6 construct: purchased Millipore KinaseProfiler
T6 sequence (Q8NG66 1-645): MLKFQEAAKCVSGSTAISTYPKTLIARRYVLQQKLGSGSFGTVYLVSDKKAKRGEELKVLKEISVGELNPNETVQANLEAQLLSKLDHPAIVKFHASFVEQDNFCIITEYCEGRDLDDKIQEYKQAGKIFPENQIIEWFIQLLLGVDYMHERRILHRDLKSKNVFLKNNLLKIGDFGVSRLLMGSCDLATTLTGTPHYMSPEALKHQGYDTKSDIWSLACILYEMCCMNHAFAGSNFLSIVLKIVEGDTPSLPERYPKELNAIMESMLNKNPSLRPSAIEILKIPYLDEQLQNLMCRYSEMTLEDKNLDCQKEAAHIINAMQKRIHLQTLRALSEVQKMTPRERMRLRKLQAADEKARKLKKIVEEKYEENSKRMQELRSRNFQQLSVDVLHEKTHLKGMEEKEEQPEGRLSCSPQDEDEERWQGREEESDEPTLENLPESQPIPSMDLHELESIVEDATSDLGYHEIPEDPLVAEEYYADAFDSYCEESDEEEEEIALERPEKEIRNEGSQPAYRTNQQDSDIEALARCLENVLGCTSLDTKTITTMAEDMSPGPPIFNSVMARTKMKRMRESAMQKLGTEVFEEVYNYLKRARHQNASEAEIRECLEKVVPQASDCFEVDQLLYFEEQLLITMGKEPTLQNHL

[8] = target: T7, Pim-3(h) (Homo sapiens, UniProt Q86V86); assay: Kinase panel; format: biochemical
T7 construct: purchased Millipore KinaseProfiler

[9] = target: T8, Txk(h) (Homo sapiens, UniProt P42681); assay: Kinase panel; format: biochemical
T8 construct: purchased Millipore KinaseProfiler
T8 sequence (P42681 1-527): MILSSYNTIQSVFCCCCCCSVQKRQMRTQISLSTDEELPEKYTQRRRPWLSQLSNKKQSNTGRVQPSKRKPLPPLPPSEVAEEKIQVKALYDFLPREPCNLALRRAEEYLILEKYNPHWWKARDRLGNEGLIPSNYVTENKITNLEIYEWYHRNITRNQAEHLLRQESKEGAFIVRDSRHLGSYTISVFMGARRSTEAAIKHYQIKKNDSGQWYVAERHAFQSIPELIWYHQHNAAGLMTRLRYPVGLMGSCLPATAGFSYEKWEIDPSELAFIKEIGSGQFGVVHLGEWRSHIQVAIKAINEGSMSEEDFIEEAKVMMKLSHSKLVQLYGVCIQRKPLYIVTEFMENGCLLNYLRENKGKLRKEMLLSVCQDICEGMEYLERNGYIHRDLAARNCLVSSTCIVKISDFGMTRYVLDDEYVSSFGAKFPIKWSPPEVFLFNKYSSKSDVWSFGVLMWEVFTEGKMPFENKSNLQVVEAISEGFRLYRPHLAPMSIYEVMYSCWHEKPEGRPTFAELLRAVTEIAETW

[10] = target: T9, VRK2(h) (Homo sapiens, UniProt Q86Y07); assay: Kinase panel; format: biochemical
T9 construct: purchased Millipore KinaseProfiler

[11] = target: P70S6K (Homo sapiens, UniProt P23443); assay: Kinase IC50 assay; format: biochemical
[12] = target: PKCθ (Homo sapiens, UniProt Q04759); assay: Kinase IC50 assay; format: biochemical
[13] = target: PKG1α (Homo sapiens, UniProt Q13976); assay: Kinase IC50 assay; format: biochemical
Sequence of PKG1α (Q13976 whole entry): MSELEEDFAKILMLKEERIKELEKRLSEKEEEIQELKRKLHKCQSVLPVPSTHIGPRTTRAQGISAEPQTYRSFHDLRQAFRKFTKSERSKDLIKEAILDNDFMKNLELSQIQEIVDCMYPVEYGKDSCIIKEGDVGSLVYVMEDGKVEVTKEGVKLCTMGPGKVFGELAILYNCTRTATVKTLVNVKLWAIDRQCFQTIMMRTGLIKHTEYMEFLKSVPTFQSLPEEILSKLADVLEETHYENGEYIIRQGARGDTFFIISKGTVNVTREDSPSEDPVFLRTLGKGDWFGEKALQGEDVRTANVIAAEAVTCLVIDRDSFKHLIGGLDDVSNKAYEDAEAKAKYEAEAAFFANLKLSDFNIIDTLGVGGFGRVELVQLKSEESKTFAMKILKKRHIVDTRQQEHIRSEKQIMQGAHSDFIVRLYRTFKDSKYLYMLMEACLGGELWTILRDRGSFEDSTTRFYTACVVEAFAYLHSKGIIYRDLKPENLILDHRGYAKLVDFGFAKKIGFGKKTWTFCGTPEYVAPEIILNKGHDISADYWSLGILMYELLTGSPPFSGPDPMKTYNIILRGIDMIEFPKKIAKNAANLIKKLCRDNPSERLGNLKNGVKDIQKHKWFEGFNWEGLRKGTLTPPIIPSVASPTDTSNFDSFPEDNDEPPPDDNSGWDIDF

T9 sequence (Q86Y07 whole entry): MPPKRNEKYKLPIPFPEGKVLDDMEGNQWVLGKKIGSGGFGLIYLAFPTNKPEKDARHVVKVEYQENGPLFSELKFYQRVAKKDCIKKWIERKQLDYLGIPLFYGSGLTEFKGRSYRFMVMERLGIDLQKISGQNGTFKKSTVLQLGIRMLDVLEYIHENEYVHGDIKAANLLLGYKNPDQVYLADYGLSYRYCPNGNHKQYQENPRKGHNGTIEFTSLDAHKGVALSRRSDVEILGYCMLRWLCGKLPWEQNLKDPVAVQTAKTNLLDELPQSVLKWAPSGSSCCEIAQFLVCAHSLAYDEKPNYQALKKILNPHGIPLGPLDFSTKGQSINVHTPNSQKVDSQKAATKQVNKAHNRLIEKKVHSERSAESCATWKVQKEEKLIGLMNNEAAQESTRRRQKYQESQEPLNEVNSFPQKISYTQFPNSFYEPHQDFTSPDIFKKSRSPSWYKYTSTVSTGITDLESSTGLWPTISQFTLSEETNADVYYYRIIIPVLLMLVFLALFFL
T1 sequence (P50750 whole entry): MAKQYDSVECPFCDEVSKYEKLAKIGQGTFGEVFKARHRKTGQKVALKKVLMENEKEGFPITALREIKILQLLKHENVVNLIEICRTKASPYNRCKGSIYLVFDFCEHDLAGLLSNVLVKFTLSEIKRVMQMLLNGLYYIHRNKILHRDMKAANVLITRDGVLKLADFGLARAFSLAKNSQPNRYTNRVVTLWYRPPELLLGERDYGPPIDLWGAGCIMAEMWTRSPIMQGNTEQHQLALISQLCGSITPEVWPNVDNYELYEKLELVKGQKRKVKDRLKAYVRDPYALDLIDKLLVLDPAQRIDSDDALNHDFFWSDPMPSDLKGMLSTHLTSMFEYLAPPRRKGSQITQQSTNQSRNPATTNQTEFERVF
T1 sequence (O60563 whole entry partner): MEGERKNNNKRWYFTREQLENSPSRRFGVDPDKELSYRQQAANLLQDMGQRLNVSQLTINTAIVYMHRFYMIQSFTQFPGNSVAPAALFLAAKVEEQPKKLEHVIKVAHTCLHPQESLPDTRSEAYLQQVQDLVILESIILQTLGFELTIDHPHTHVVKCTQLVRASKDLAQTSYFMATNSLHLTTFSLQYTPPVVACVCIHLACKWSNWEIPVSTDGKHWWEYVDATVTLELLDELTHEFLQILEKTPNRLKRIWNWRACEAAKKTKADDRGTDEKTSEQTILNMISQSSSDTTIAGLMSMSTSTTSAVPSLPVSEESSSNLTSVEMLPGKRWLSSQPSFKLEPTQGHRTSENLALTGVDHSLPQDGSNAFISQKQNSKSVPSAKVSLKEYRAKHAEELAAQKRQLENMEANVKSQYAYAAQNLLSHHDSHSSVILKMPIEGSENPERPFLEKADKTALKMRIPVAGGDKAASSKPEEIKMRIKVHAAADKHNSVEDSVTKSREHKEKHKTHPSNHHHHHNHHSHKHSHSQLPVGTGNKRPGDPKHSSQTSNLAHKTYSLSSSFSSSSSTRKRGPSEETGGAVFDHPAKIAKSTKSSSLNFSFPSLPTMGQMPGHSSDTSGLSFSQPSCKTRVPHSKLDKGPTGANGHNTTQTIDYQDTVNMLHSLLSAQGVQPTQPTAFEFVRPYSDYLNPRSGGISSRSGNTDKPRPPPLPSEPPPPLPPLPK
T3 sequence (P06239 whole entry): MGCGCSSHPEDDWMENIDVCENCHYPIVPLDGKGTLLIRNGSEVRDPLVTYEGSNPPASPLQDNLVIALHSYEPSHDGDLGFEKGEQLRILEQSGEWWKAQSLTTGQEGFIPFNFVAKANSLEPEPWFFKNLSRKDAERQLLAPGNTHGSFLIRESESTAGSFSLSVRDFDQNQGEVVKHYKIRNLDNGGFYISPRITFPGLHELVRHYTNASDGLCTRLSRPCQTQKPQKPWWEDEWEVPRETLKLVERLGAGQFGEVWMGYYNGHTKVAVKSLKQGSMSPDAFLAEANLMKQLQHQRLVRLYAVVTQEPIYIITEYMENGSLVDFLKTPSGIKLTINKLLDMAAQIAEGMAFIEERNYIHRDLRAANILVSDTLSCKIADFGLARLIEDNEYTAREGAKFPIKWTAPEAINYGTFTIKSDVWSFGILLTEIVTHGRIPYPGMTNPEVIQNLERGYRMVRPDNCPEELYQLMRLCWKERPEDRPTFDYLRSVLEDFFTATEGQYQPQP
T4 sequence (P08581 25-1390): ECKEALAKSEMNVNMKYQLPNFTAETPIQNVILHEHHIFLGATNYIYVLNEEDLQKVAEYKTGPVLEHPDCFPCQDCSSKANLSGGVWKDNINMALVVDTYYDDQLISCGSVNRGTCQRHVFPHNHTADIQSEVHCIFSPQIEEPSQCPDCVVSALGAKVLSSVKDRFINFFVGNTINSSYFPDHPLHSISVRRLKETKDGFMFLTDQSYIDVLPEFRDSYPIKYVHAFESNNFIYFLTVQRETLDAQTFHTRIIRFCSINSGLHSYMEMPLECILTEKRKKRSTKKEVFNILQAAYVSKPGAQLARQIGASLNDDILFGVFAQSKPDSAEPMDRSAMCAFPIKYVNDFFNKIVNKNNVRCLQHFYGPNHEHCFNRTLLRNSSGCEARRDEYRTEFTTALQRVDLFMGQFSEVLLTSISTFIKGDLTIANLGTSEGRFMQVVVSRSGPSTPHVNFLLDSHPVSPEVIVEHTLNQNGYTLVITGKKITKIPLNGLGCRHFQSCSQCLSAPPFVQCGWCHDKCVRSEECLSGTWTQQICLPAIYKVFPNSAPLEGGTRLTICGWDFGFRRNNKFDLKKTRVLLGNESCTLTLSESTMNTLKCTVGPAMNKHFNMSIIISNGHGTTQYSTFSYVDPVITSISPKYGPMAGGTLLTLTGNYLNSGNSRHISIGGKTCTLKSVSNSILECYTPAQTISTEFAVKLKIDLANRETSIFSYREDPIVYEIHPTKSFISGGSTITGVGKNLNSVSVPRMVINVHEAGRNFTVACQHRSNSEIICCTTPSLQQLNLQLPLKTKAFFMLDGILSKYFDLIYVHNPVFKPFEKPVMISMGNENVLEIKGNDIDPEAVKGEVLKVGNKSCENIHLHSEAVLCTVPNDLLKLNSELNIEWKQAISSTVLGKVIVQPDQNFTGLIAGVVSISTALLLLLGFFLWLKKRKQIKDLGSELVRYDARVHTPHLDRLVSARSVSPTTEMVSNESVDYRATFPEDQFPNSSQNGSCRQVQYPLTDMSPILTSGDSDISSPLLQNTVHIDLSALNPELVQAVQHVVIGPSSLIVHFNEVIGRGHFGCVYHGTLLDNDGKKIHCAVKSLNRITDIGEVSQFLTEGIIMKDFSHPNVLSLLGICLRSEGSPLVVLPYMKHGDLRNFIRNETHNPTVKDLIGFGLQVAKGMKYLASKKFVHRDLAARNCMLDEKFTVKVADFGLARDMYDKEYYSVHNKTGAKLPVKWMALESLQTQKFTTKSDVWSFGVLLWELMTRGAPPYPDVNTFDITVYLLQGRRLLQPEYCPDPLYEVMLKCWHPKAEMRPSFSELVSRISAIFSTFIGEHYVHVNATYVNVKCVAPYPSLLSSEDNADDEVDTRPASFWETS
Sequence of P70S6K (P23443 whole entry): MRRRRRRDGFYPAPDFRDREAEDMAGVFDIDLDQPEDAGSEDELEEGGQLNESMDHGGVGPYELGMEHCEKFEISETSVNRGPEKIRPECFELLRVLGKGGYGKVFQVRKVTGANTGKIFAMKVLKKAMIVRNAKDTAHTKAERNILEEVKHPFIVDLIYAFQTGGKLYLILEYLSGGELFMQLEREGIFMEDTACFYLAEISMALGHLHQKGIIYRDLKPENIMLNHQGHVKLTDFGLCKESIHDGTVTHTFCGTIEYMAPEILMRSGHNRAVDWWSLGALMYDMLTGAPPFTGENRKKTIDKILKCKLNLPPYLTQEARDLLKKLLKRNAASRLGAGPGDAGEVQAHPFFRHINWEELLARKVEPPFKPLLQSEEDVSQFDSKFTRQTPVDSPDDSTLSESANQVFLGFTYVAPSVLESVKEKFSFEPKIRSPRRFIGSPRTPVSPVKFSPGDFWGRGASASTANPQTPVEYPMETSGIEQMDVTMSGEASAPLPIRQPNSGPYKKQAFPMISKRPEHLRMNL

Cn1ncc(Cl)c1-c1cc(C(=O)N[C@H](CN)Cc2cccc(F)c2)sc1Cl [GSK2110183]
% Inhibition ([1]; 0.5 µM): 3% | % Inhibition ([1]; 10 µM): 56% | inhibition at 0.5 µM [2]: 0% | inhibition at 10 µM [2]: 48% | inhibition at 0.5 µM [3]: -8% | inhibition at 10 µM [3]: 1% | inhibition at 0.5 µM [4]: 7% | inhibition at 10 µM [4]: 35% | inhibition at 0.5 µM [5]: -7% | inhibition at 10 µM [5]: 11% | inhibition at 0.5 µM [6]: 6% | inhibition at 10 µM [6]: 36% | inhibition at 0.5 µM [7]: -13% | inhibition at 10 µM [7]: -11% | inhibition at 0.5 µM [8]: -25% | inhibition at 10 µM [8]: -13% | inhibition at 0.5 µM [9]: -9% | inhibition at 10 µM [9]: 15% | inhibition at 0.5 µM [10]: -8% | inhibition at 10 µM [10]: -5% | IC50 [11]: 251 nM | IC50 [12]: 510 nM | IC50 [13]: 0.9 nM

Cn1ncc(Cl)c1-c1cc(C(=O)N[C@H](CN)Cc2ccc(F)c(F)c2)oc1Cl [GSK2141795]
% Inhibition ([1]; 0.5 µM): 10% | % Inhibition ([1]; 10 µM): 76% | inhibition at 0.5 µM ([2]; 0.5 µM, read-out: % Inhibition): 15% | inhibition at 10 µM ([2]; 10 µM, read-out: % Inhibition): 72% | inhibition at 0.5 µM ([3]; 0.5 µM, read-out: % Inhibition): -12% | inhibition at 10 µM ([3]; 10 µM, read-out: % Inhibition): -5% | inhibition at 0.5 µM ([4]; 0.5 µM, read-out: % Inhibition): -18% | inhibition at 10 µM ([4]; 10 µM, read-out: % Inhibition): 21% | inhibition at 0.5 µM ([5]; 0.5 µM, read-out: % Inhibition): -28% | inhibition at 10 µM ([5]; 10 µM, read-out: % Inhibition): -6% | inhibition at 0.5 µM ([6]; 0.5 µM, read-out: % Inhibition): 14% | inhibition at 10 µM ([6]; 10 µM, read-out: % Inhibition): 66% | inhibition at 0.5 µM ([7]; 0.5 µM, read-out: % Inhibition): -11% | inhibition at 10 µM ([7]; 10 µM, read-out: % Inhibition): -2% | inhibition at 0.5 µM ([8]; 0.5 µM, read-out: % Inhibition): -10% | inhibition at 10 µM ([8]; 10 µM, read-out: % Inhibition): -4% | inhibition at 0.5 µM ([9]; 0.5 µM, read-out: % Inhibition): 11% | inhibition at 10 µM ([9]; 10 µM, read-out: % Inhibition): 30% | inhibition at 0.5 µM ([10]; 0.5 µM, read-out: % Inhibition): -15% | inhibition at 10 µM ([10]; 10 µM, read-out: % Inhibition): -5% | IC50 [11]: 50 nM | IC50 [12]: 64 nM | IC50 [13]: < 1 nM
